How the values were obtained:
MdtF [1] = molecular target: T1, MdtF (Escherichia coli, UniProt P37637, V610F); experiment: fluorescence polarisation Kd; thermal stabilisation (CD, DSC, nanoDSF); format: binding
T1 construct: MdtF-6xHis (C-terminal His tag) in SMALP native-lipid nanodiscs; homotrimer
T1 sequence (P37637 1-1037 V610F): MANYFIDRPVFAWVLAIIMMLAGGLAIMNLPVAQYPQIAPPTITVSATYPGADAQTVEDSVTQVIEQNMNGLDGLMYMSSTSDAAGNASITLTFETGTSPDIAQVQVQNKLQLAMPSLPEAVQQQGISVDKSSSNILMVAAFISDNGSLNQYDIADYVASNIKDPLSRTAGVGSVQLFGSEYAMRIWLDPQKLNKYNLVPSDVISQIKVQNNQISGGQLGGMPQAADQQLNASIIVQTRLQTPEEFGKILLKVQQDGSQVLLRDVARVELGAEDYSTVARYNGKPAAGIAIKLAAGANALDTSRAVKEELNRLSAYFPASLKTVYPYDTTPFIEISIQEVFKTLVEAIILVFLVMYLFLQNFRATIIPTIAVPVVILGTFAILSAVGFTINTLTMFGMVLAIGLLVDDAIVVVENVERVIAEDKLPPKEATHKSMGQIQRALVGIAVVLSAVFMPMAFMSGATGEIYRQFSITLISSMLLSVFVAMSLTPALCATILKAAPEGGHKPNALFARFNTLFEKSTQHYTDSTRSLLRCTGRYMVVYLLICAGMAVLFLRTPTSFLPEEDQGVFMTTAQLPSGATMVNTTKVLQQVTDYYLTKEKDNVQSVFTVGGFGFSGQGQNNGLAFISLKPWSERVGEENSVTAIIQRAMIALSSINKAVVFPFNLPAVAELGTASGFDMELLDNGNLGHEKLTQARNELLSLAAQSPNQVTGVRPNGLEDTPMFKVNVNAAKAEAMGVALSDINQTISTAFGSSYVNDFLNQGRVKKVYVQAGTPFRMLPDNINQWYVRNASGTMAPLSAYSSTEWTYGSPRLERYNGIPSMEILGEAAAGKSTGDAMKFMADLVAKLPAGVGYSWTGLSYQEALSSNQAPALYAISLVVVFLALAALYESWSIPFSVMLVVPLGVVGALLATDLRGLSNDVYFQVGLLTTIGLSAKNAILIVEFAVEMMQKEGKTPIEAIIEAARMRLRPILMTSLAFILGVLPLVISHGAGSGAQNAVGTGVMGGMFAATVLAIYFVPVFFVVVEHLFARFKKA

MdtF [2] = molecular target: T2, MdtF (Escherichia coli, UniProt P37637); experiment: fluorescence polarisation; thermal stabilisation (CD, DSC, nanoDSF); format: binding
T2 construct: MdtF-6xHis (C-terminal His tag) in SMALP native-lipid nanodiscs; homotrimer

cryo-EM structure = molecular target: the molecule itself; experiment: cryo-EM structure

CC/N=c1\cc2oc3cc(NCC)c(C)cc3c(-c3ccccc3C(=O)OCC)c-2cc1C [R6G, Rhodamine 6G]
Kd (MdtF [1]): 720 ± 90 nM | Kd (MdtF [2]): 390 ± 90 nM

B1: Escherichia coli multidrug transporter MdtF, wild type (MdtF-6xHis) in SMA lipid particles (natural protein)
chain: MANYFIDRPVFAWVLAIIMMLAGGLAIMNLPVAQYPQIAPPTITVSATYPGADAQTVEDSVTQVIEQNMNGLDGLMYMSSTSDAAGNASITLTFETGTSPDIAQVQVQNKLQLAMPSLPEAVQQQGISVDKSSSNILMVAAFISDNGSLNQYDIADYVASNIKDPLSRTAGVGSVQLFGSEYAMRIWLDPQKLNKYNLVPSDVISQIKVQNNQISGGQLGGMPQAADQQLNASIIVQTRLQTPEEFGKILLKVQQDGSQVLLRDVARVELGAEDYSTVARYNGKPAAGIAIKLAAGANALDTSRAVKEELNRLSAYFPASLKTVYPYDTTPFIEISIQEVFKTLVEAIILVFLVMYLFLQNFRATIIPTIAVPVVILGTFAILSAVGFTINTLTMFGMVLAIGLLVDDAIVVVENVERVIAEDKLPPKEATHKSMGQIQRALVGIAVVLSAVFMPMAFMSGATGEIYRQFSITLISSMLLSVFVAMSLTPALCATILKAAPEGGHKPNALFARFNTLFEKSTQHYTDSTRSLLRCTGRYMVVYLLICAGMAVLFLRTPTSFLPEEDQGVFMTTAQLPSGATMVNTTKVLQQVTDYYLTKEKDNVQSVFTVGGFGFSGQGQNNGLAFISLKPWSERVGEENSVTAIIQRAMIALSSINKAVVFPFNLPAVAELGTASGFDMELLDNGNLGHEKLTQARNELLSLAAQSPNQVTGVRPNGLEDTPMFKVNVNAAKAEAMGVALSDINQTISTAFGSSYVNDFLNQGRVKKVYVQAGTPFRMLPDNINQWYVRNASGTMAPLSAYSSTEWTYGSPRLERYNGIPSMEILGEAAAGKSTGDAMKFMADLVAKLPAGVGYSWTGLSYQEALSSNQAPALYAISLVVVFLALAALYESWSIPFSVMLVVPLGVVGALLATDLRGLSNDVYFQVGLLTTIGLSAKNAILIVEFAVEMMQKEGKTPIEAIIEAARMRLRPILMTSLAFILGVLPLVISHGAGSGAQNAVGTGVMGGMFAATVLAIYFVPVFFVVVEHLFARFKKA
notes: also called MdtF^WT; apo-MdtF^WT; source: E. coli C43(DE3) ΔacrAB, extracted from membranes with SMA 2000 into SMALPs, purified (Ni-NTA, SEC)
stoichiometry N (cryo-EM structure): 3

B2: Escherichia coli multidrug transporter MdtF with the single-point mutation V610F (MdtF-6xHis) in SMA lipid particles (natural protein)
chain: MANYFIDRPVFAWVLAIIMMLAGGLAIMNLPVAQYPQIAPPTITVSATYPGADAQTVEDSVTQVIEQNMNGLDGLMYMSSTSDAAGNASITLTFETGTSPDIAQVQVQNKLQLAMPSLPEAVQQQGISVDKSSSNILMVAAFISDNGSLNQYDIADYVASNIKDPLSRTAGVGSVQLFGSEYAMRIWLDPQKLNKYNLVPSDVISQIKVQNNQISGGQLGGMPQAADQQLNASIIVQTRLQTPEEFGKILLKVQQDGSQVLLRDVARVELGAEDYSTVARYNGKPAAGIAIKLAAGANALDTSRAVKEELNRLSAYFPASLKTVYPYDTTPFIEISIQEVFKTLVEAIILVFLVMYLFLQNFRATIIPTIAVPVVILGTFAILSAVGFTINTLTMFGMVLAIGLLVDDAIVVVENVERVIAEDKLPPKEATHKSMGQIQRALVGIAVVLSAVFMPMAFMSGATGEIYRQFSITLISSMLLSVFVAMSLTPALCATILKAAPEGGHKPNALFARFNTLFEKSTQHYTDSTRSLLRCTGRYMVVYLLICAGMAVLFLRTPTSFLPEEDQGVFMTTAQLPSGATMVNTTKVLQQVTDYYLTKEKDNVQSVFTFGGFGFSGQGQNNGLAFISLKPWSERVGEENSVTAIIQRAMIALSSINKAVVFPFNLPAVAELGTASGFDMELLDNGNLGHEKLTQARNELLSLAAQSPNQVTGVRPNGLEDTPMFKVNVNAAKAEAMGVALSDINQTISTAFGSSYVNDFLNQGRVKKVYVQAGTPFRMLPDNINQWYVRNASGTMAPLSAYSSTEWTYGSPRLERYNGIPSMEILGEAAAGKSTGDAMKFMADLVAKLPAGVGYSWTGLSYQEALSSNQAPALYAISLVVVFLALAALYESWSIPFSVMLVVPLGVVGALLATDLRGLSNDVYFQVGLLTTIGLSAKNAILIVEFAVEMMQKEGKTPIEAIIEAARMRLRPILMTSLAFILGVLPLVISHGAGSGAQNAVGTGVMGGMFAATVLAIYFVPVFFVVVEHLFARFKKA
notes: also called MdtF^V610F; apo-MdtF^V610F; source: E. coli C43(DE3) ΔacrAB, extracted from membranes with SMA 2000 into SMALPs, purified (Ni-NTA, SEC)
binding result (cryo-EM structure): binds
